Source: PubChem BioAssay (NCI)
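1) Cells in 96-well plates. 2) Compound, 48 h, 5 concentrations. 3) Linear interpolation between surrounding doses. 4) Unreached endpoint = highest concentration. Here, GI50 denotes the concentration required for 50% inhibition of growth. TGI marks complete inhibition of growth.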

How the values were obtained:
Experiment in all cases: growth of human tumour cells (NCI), 48 h
SR leukemia = system: SR leukemia
HL-60(TB) leukemia = system: HL-60(TB) leukemia
MDA-MB-435 = system: MDA-MB-435
MALME-3M melanoma = system: MALME-3M melanoma
UACC-62 melanoma = system: UACC-62 melanoma
HCT-15 colon = system: HCT-15 colon
SK-OV-3 ovarian = system: SK-OV-3 ovarian
SNB-75 CNS = system: SNB-75 CNS
HCC-2998 colon = system: HCC-2998 colon
BT-549 breast = system: BT-549 breast
OVCAR-8 ovarian = system: OVCAR-8 ovarian
786-0 renal = system: 786-0 renal
UO-31 renal = system: UO-31 renal
SNB-19 CNS = system: SNB-19 CNS
K-562 leukemia = system: K-562 leukemia
HOP-92 NSCLC = system: HOP-92 NSCLC
A549 NSCLC = system: A549 NSCLC
HS 578T breast = system: HS 578T breast
MDA-MB-231 breast = system: MDA-MB-231 breast
MOLT-4 leukemia = system: MOLT-4 leukemia
TK-10 renal = system: TK-10 renal
DU-145 prostate = system: DU-145 prostate
M14 melanoma = system: M14 melanoma
NCI-H226 lung = system: NCI-H226 lung
IGROV1 ovarian = system: IGROV1 ovarian
SK-MEL-28 melanoma = system: SK-MEL-28 melanoma
SF-539 CNS = system: SF-539 CNS
OVCAR-3 ovarian = system: OVCAR-3 ovarian
SK-MEL-2 melanoma = system: SK-MEL-2 melanoma
SW-620 colon = system: SW-620 colon
SN12C renal = system: SN12C renal
SK-MEL-5 melanoma = system: SK-MEL-5 melanoma
KM12 colon = system: KM12 colon
RXF 393 renal = system: RXF 393 renal
NCI-H460 lung = system: NCI-H460 lung
CCRF-CEM leukemia = system: CCRF-CEM leukemia
U251 CNS = system: U251 CNS
OVCAR-5 ovarian = system: OVCAR-5 ovarian
UACC-257 melanoma = system: UACC-257 melanoma
COLO 205 colon = system: COLO 205 colon
OVCAR-4 ovarian = system: OVCAR-4 ovarian
PC-3 prostate = system: PC-3 prostate
HOP-62 NSCLC = system: HOP-62 NSCLC
NCI/ADR-RES ovarian = system: NCI/ADR-RES ovarian
HCT-116 colon = system: HCT-116 colon
EKVX NSCLC = system: EKVX NSCLC
A498 renal = system: A498 renal
CAKI-1 renal = system: CAKI-1 renal
NCI-H522 lung = system: NCI-H522 lung
RPMI-8226 leukemia = system: RPMI-8226 leukemia
LOX IMVI melanoma = system: LOX IMVI melanoma
T-47D breast = system: T-47D breast
NCI-H23 lung = system: NCI-H23 lung
SF-268 CNS = system: SF-268 CNS
MCF7 breast = system: MCF7 breast
HT29 colon = system: HT29 colon
ACHN renal = system: ACHN renal
SF-295 CNS = system: SF-295 CNS

O=C(N/N=C/c1ccc([N+](=O)[O-])o1)c1[nH]c2ccc(Br)cc2c1-c1ccccc1
GI50 (SR leukemia): 143 nM | TGI (SR leukemia): 9090 nM | GI50 (HL-60(TB) leukemia): 235 nM | TGI (HL-60(TB) leukemia): 626 nM | GI50 (MDA-MB-435): 111 nM | TGI (MDA-MB-435): 293 nM | GI50 (MALME-3M melanoma): 682 nM | TGI (MALME-3M melanoma): 3320 nM | GI50 (UACC-62 melanoma): 150 nM | TGI (UACC-62 melanoma): 2070 nM | GI50 (HCT-15 colon): 230 nM | TGI (HCT-15 colon): 987 nM | GI50 (SK-OV-3 ovarian): 501 nM | TGI (SK-OV-3 ovarian): 8370 nM | GI50 (SNB-75 CNS): 216 nM | TGI (SNB-75 CNS): 1550 nM | GI50 (HCC-2998 colon): 367 nM | TGI (HCC-2998 colon): 1600 nM | GI50 (BT-549 breast): 222 nM | TGI (BT-549 breast): 694 nM | GI50 (OVCAR-8 ovarian): 241 nM | TGI (OVCAR-8 ovarian): 677 nM | GI50 (786-0 renal): 367 nM | TGI (786-0 renal): 4750 nM | GI50 (UO-31 renal): 431 nM | TGI (UO-31 renal): 7820 nM | GI50 (SNB-19 CNS): 337 nM | TGI (SNB-19 CNS): 12100 nM | GI50 (K-562 leukemia): 118 nM | TGI (K-562 leukemia): > 100000 nM | GI50 (HOP-92 NSCLC): 733 nM | TGI (HOP-92 NSCLC): 4390 nM | GI50 (A549 NSCLC): 354 nM | TGI (A549 NSCLC): 11800 nM | GI50 (HS 578T breast): 519 nM | TGI (HS 578T breast): 14600 nM | GI50 (MDA-MB-231 breast): 288 nM | TGI (MDA-MB-231 breast): 1050 nM | GI50 (MOLT-4 leukemia): 356 nM | TGI (MOLT-4 leukemia): 10600 nM | GI50 (TK-10 renal): 1530 nM | TGI (TK-10 renal): 10100 nM | GI50 (DU-145 prostate): 406 nM | TGI (DU-145 prostate): 12200 nM | GI50 (M14 melanoma): 274 nM | TGI (M14 melanoma): 1160 nM | GI50 (NCI-H226 lung): 306 nM | TGI (NCI-H226 lung): 1560 nM | GI50 (IGROV1 ovarian): 340 nM | TGI (IGROV1 ovarian): 10900 nM | GI50 (SK-MEL-28 melanoma): 1170 nM | TGI (SK-MEL-28 melanoma): 7190 nM | GI50 (SF-539 CNS): 177 nM | TGI (SF-539 CNS): 514 nM | GI50 (OVCAR-3 ovarian): 433 nM | TGI (OVCAR-3 ovarian): 4090 nM | GI50 (SK-MEL-2 melanoma): 335 nM | TGI (SK-MEL-2 melanoma): 1700 nM | GI50 (SW-620 colon): 359 nM | TGI (SW-620 colon): 1970 nM | GI50 (SN12C renal): 323 nM | TGI (SN12C renal): 1980 nM | GI50 (SK-MEL-5 melanoma): 235 nM | TGI (SK-MEL-5 melanoma): 638 nM | GI50 (KM12 colon): 410 nM | TGI (KM12 colon): 11600 nM | GI50 (RXF 393 renal): 294 nM | TGI (RXF 393 renal): 1090 nM | GI50 (NCI-H460 lung): 331 nM | TGI (NCI-H460 lung): 1000 nM | GI50 (CCRF-CEM leukemia): 414 nM | TGI (CCRF-CEM leukemia): 45800 nM | GI50 (U251 CNS): 303 nM | TGI (U251 CNS): 1560 nM | GI50 (OVCAR-5 ovarian): 439 nM | TGI (OVCAR-5 ovarian): 14000 nM | GI50 (UACC-257 melanoma): 542 nM | TGI (UACC-257 melanoma): 4350 nM | GI50 (COLO 205 colon): 244 nM | TGI (COLO 205 colon): 577 nM | GI50 (OVCAR-4 ovarian): 720 nM | TGI (OVCAR-4 ovarian): 10500 nM | GI50 (PC-3 prostate): 400 nM | TGI (PC-3 prostate): 6390 nM | GI50 (HOP-62 NSCLC): 541 nM | TGI (HOP-62 NSCLC): 5360 nM | GI50 (NCI/ADR-RES ovarian): 234 nM | TGI (NCI/ADR-RES ovarian): 2830 nM | GI50 (HCT-116 colon): 182 nM | TGI (HCT-116 colon): 980 nM | GI50 (EKVX NSCLC): 1120 nM | TGI (EKVX NSCLC): 9140 nM | GI50 (A498 renal): 7450 nM | TGI (A498 renal): 24400 nM | GI50 (CAKI-1 renal): 382 nM | TGI (CAKI-1 renal): 9370 nM | GI50 (NCI-H522 lung): 37.4 nM | TGI (NCI-H522 lung): 345 nM | GI50 (RPMI-8226 leukemia): 357 nM | TGI (RPMI-8226 leukemia): 12800 nM | GI50 (LOX IMVI melanoma): 190 nM | TGI (LOX IMVI melanoma): 1610 nM | GI50 (T-47D breast): 1790 nM | TGI (T-47D breast): 24000 nM | GI50 (NCI-H23 lung): 393 nM | TGI (NCI-H23 lung): 4160 nM | GI50 (SF-268 CNS): 564 nM | TGI (SF-268 CNS): 11000 nM | GI50 (MCF7 breast): 110 nM | TGI (MCF7 breast): 5530 nM | GI50 (HT29 colon): 307 nM | TGI (HT29 colon): 1270 nM | GI50 (ACHN renal): 379 nM | TGI (ACHN renal): 6110 nM | GI50 (SF-295 CNS): 189 nM | TGI (SF-295 CNS): 1230 nM
